Results: paper PMC5321434, “Dihydrobenz[e][1,4]oxazepin-2(3H)-ones, a new anthelmintic chemotype immobilising whipworm and reducing infectivity in vivo” (PLoS Neglected Tropical Diseases, 2017)

Tested on: adult T. muris
Assay: Ex vivo adult T. muris automated motility assay (primary/secondary screen at 100 μM and dose-response)
Set-up: species or system Trichuris muris
Conditions: for PRIMARY_SCREEN_MINUS_LOG_FOLD_CHANGE_MOVEMENT: primary screen, adult T. muris motility
Description: Severe combined immune deficiency (SCID) mice were bred in the Biological Services Facility at the University of Manchester. Both male and female SCID mice were infected with a high dose of 200 infective embryonated T. muris eggs via oral gavage. At day 35 post-infection, groups of 5 mice were killed and their […] colons removed. Guts were opened longitudinally, washed with pre-warmed Roswell Park Memorial Institute (RPMI) 1640 media supplemented with penicillin (500U/ml) and streptomycin (500μg/ml) and adult T. muris worms gently removed using fine forceps. Worms removed from SCID mice were maintained in RPMI-1640 media supplemented with penicillin (500U/ml) and streptomycin (500μg/ml) at approximately 37°C and studied on the same day. Using fine forceps, individual live worms were placed into 96 well plates containing 75μl of RPMI-1640 medium supplemented with penicillin (500U/ml) and streptomycin (500μg/ml) plus 1% final concentration of DMSO or compound dissolved in DMSO. In the primary screen the test compound concentration was 100μM. Plates were then incubated at 37°C, 5% CO2, and motility was analysed after 24 hours. Worm movement was quantified using an automated motility assay. This system gives an estimate of worm movement in each well by thresholding and quantifying pixel intensity variance over time. An earlier version of this system has been previously described. One adult T. muris worm was used per well, with one well per compound in each replicate of the primary screen. The primary screen was repeated each week for a period of four weeks giving four independent biological replicates from separate parasite batches for each compound. Dose-response curves were calculated with the four factor log-logistic model using the R package drc. The primary screen was carried out at 100μM final concentration. Assay plates were assigned unique IDs and statistical analysis was performed without knowledge of compound identities using R scripts. Once hit wells were identified, well/plate positions were mapped to compound identities using DataWarrior [28]. […] Compounds identified as having encouraging activity from the DMSO solution samples were then resynthesized for confirmatory testing.

[1] = combined primary and secondary screen minus log fold change in movement, adult T. muris, 100 μM

Structure (SMILES) | COMBINED_SCREEN_ACTIVITY [1] | PRIMARY_SCREEN_MINUS_LOG_FOLD_CHANGE_MOVEMENT (100 μM) | COMBINED_SCREEN_ACTIVITY (adult T. muris motility screen at 100 μM, combines primary and secondary screen minus log fold change in movement (mean where both are given))
CC(C)Oc1cccc(-c2ccc3c(c2)N(CCN2CCOCC2)C(=O)COC3)c1 [Compound 180] | -1.713 | -1.713 | 
CN1C(=O)COCc2cc(Br)ccc21 [Compound 6] | -1.038 | -1.038 | 
COc1cc(F)ccc1-c1ccc2c(c1)N(CCc1ccccc1)C(=O)COC2 [Compound 146] | -0.8154 | -0.8154 | 
COc1ccc(F)cc1-c1ccc2c(c1)N(CCc1ccccc1)C(=O)COC2 [Compound 147] | 0.4002 | 0.4002 | 
Cn1cc(-c2ccc3c(c2)N(Cc2ccccc2Cl)C(=O)COC3)cn1 [Compound 114] | 1.278 | 1.278 | 
O=C1COCc2ccc(-c3cccnc3)cc2N1CCN1CCOCC1 [Compound 86] | -1.564 | -1.564 | 
COCCN1C(=O)COCc2ccc(-c3cc(F)cc(F)c3)cc21 [Compound 56] | -1.686 | -1.686 | 
Cn1cc(-c2ccc3c(c2)COCC(=O)N3Cc2ccccc2)cn1 [Compound 58] | 0.8104 | 0.8104 | 
CN1C(=O)COCc2c(-c3cccc(CO)c3)cccc21 [Compound 15] | -0.7825 | -0.7825 | 
Cn1cc(-c2ccc3c(c2)COCC(=O)N3Cc2ccccc2Cl)cn1 [Compound 113] | 0.5472 | 0.5472 | 
O=C1COCc2cc(-c3ccncc3)ccc2N1Cc1ccc2c(c1)OCO2 [Compound 124] | 0.4678 | 0.4678 | 
COc1ccccc1-c1ccc2c(c1)COCC(=O)N2Cc1ccc(C(=O)N(C)C)cc1 [Compound 188] |  | 1.744 | 1.744
Cc1ccc(-c2ccc3c(c2)N(CCN2CCOCC2)C(=O)COC3)cc1C [Compound 134] | -2.044 | -2.044 | 
Cc1ccccc1-c1ccc2c(c1)COCC(=O)N2CCN1CCOCC1 [Compound 111] | -0.2494 | -0.2494 | 
O=C1COCc2ccc(-c3cccnc3)cc2N1Cc1ccccc1Cl [Compound 107] | 2.19 | 2.19 | 
O=C1COCc2cc(Br)ccc2N1CCc1ccccc1 [Compound 79] | -0.767 | -0.767 | 
COc1ccc(F)cc1-c1ccc2c(c1)COCC(=O)N2CCN1CCOCC1 [Compound 163] | -0.1485 | -0.1485 | 
CN1C(=O)COCc2c(-c3ccc(F)c(Cl)c3)cccc21 [Compound 33] | 1.432 | 1.432 | 
O=C1COCc2ccc(Br)cc2N1CCN1CCOCC1 [Compound 92] | -1.293 | -1.293 | 
CC(=O)Nc1cccc(-c2ccc3c(c2)N(Cc2ccccc2)C(=O)COC3)c1 [Compound 137] | 5.935 | 5.935 | 
Cc1ccc(CN2C(=O)COCc3cc(-c4cccc(C#N)c4)ccc32)cc1 [Compound 115] | -2.656 | -2.656 | 
COCc1cccc(-c2ccc3c(c2)COCC(=O)N3Cc2cc(F)cc(F)c2)c1 [Compound 179] | 0.9799 | 0.9799 | 
